From patent US12435091B2, “RNA-binding protein multimerization inhibitors and methods of use thereof” (THE UAB RESEARCH FOUNDATION, priority 2020, dated 2025)

What was measured:
[1] = molecular target: AAK1 (Homo sapiens, UniProt Q2M2I8); assay: SelectScreen kinase profiling, LanthaScreen Binding
Description: (§1) The kinase inhibitory potentials of compounds as described herein (e.g., SRI-42127 and SRI-41664) were evaluated by ThermoFisher Scientific's SelectScreen™ Kinase Profiling Service. The following kinase inhibitory assays were utilized: ZLYTE (Madison, WI) for NTRK1, PIM1, and cMET kinases; LanthaScreen Binding (Madison, WI) for AAK1 kinase; and Adapta (Madison, WI) for IRAK1 kinase.

[2] = molecular target: IRAK1 (Homo sapiens, UniProt P51617); assay: SelectScreen kinase profiling, Adapta; format: biochemical
IRAK1, sequence (P51617 whole entry): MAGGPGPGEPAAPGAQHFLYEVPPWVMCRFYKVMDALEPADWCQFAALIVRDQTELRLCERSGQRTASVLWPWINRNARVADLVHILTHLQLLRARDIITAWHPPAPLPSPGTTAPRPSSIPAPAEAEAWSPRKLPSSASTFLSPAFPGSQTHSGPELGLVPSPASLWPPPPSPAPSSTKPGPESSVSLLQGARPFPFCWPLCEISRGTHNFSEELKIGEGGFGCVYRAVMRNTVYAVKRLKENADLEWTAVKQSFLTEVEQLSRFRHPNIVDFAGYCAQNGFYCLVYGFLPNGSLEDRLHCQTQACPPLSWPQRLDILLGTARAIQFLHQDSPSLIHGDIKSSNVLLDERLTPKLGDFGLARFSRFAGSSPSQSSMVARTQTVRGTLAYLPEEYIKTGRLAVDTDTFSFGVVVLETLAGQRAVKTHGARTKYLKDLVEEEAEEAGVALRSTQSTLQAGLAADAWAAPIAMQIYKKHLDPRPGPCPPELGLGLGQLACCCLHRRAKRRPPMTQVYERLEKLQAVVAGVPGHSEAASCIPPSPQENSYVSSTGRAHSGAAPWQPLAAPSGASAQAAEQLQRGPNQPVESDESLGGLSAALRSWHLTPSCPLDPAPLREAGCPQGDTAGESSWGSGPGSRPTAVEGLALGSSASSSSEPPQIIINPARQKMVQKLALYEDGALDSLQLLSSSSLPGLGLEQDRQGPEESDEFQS
Description: as §1

[3] = tested on: Bcl2 and Mcl1 mRNAs in LN229 cell line; assay: Taqman quantification of Bcl2/18S and Mcl1/18S mRNA; format: cell-based; details: LN229, 10 uM for 24 hours
Description: (§2) The HuR-mRNA co-immunoprecipitation (IP) was performed by utilizing RiboCluster Profiler RIP-assay Kit (MBL International). The quantifications of Bcl2, and 18S transcripts were performed using Taqman technique with the following gene-specific probes: Hs00153350_m1, Hs03003631_g1, and Hs00766187_m1 (ThermoFisher Scientific) for Bcl2, 18S, and Mcl1, respectively.
(§3) mRNA isolation and purification from adherent cells were performed using RNeasy Mini Kit and QIAshredder columns (Qiagen, Valencia, CA).
(§4) HuR protein plays a significant role in the stabilization of the mRNAs of the anti-apoptotic Bcl2-family, which contributes to the protection of genetically unstable glioma cells from apoptosis. Therefore, the Bcl2 family was evaluated in the established and PDGx cell lines after cell treatment with SRI-41664 or SRI-42127 compounds. […] The protein levels of Bcl2 and Mcl1 were evaluated in the established U251 and PDGx XD456 glioma cell lines in the control (vehicle treatment) and after treatment with SRI-41664 or SRI-42127 compounds for 48 hours.

[4] = tested on: Bcl2 and Mcl1 mRNAs in PDGx XD456 cell line; assay: as above; format: cell-based; details: XD456, 10 uM for 24 hours
Description: as §2, §3, §4

[5] = tested on: Bcl2 and Mcl1 mRNAs in U251 cell line; assay: as above; format: cell-based; details: U251, 10 uM for 24 hours
Description: as §2, §3, §4

[6] = tested on: U251 cell line; assay: attached cell colony formation assay; format: cell-based; details: 3 uM
Description: (§5) The soft agar colony formation assay was performed by using 0.9% and 0.45% agarose for the bottom and the top layers, respectively; cells were incorporated in the top layer. Seaplaque low-melting temperature agarose was purchased from Lonza (Rockland, ME). Five hundred cells per well were utilized in both, the soft agar and the attached colony formation assays, which were performed in 6 well plates; cells were treated with vehicle as the control or with the desired drugs, which were administered twice per week for three weeks. The Crystal violet solution (0.1%) was utilized for colony staining in both assays. The colonies were counted after three weeks of treatment; the plate images were obtained by using Amersham Imager-600 reader (Piscataway, NJ).
(§6) Graphs in FIG. 8D illustrate the average numbers of colonies formed by established U251 and PDGx XD456 cell lines in the attached cell colony formation assay and in the soft agar colony formation assay, which represents anchorage independent cell growth.

[7] = tested on: XD456 cell line; assay: attached cell colony formation assay; format: cell-based; details: 3 uM
Description: as §5, §6

[8] = tested on: inflammatory cytokines, chemokines and other mediators in primary microglial cells; assay: qPCR of inflammatory mediator mRNAs in LPS-activated primary microglia; format: cell-based, mouse; details: 24 hours
Description: Cultured primary microglial cells isolated from neonatal mouse brain were treated with LPS to achieve activation. Cells were then treated with varying doses of SRI-42127 or vehicle for 24 hours. Total RNA was harvested from the cells and various mRNAs were quantified by qPCR as depicted in FIG. 12. Consistent with microglial activation, there were large inductions of inflammatory cytokines, chemokines and other mediators including IL-1β, IL-6, TNF-α, iNOS, IL-10, CXCL1, CXCL2, CXCL10, CCL2, CCL3, and CCL4. These inductions were as high as ˜3500-fold for IL-6.
Major chemokines CXCL1, CXCL2 and CCL3 were suppressed by more than 2-fold. There was a mixed effect on markers of M2-like markers, with TGF-β1 and YM1 increasing and IL-10 decreasing. As these inflammatory factors were secreted, they were quantified by ELISA in culture medium. The greatest effect was with IL-6 which was suppressed at a lower dose of SRI-42127 (1.7-fold at 0.1 μM) and nearly 10-fold at 1.0 μM. IL-1β and TNF-α were suppressed by 5-fold at 1.0 μM.

[9] = tested on: HuR; assay: HuR localization (N/C ratio) in LPS-stimulated cultured astrocytes; format: cell-based; details: 0.5 μM for 24 hours
Description: First, the effect of SRI-42127 on HuR localization in astrocytes was studied. […] Quantification of the N/C HuR ratio using methodology described with microglia was 2.0. With LPS stimulation, there was translocation of HuR to the cytoplasm consistent with astrocyte activation and the N/C ratio decreased to 0.4 (P<0.001). When cells were treated with SRI-42127, this ratio was reversed back to pre-stimulation value (1.9). These findings indicate that SRI-42127 blocks cytoplasmic translocation of HuR in activated astrocytes.

[10] = tested on: allodynia after spared nerve injury; assay: spared nerve injury (sciatic nerve) model, mechanical sensitivity (Von Frey); format: in vivo; details: acute administration to DMSO-treated mice at day 7
Description: Wild-type male mice were subjected to a mid-thoracic contusion injury and then treated with SRI-42127 (15 mg/kg) every 8 hours for 4 days, starting 1 hour after injury. […] Not to be bound by theory, similar to spinal cord injury, chronic pain signaling is triggered by activation of microglia and astroglia in the spinal cord and production of inflammatory mediators (e.g. TNF-α, IL-1β, IL-6, INOS, CCL2) that induce hyperexcitation of sensory neurons in the dorsal horn. Mice underwent sciatic nerve lesioning to produce a spared nerve injury and then received SRI-42127 (15 mg/kg) or vehicle every 6 hours for 4 days (starting 1 h after injury). Mechanical sensitivity was assessed at day 7 post-injury. […] Following this test, a subset of mice in the DMSO-treated group was given an acute administration of SRI-42127 (or DMSO) and their mechanical sensitivity was tested at 30 minutes and 60 minutes post-administration. Acute treatment with SRI-42127 reversed allodynia in these mice for at least 60 minutes (p<0.01, FIG. 21, Panel D).

[11] = in vitro; details: human, liver microsomes
Description: Selected compounds were assessed for their aqueous solubility, Log D and mouse and human liver microsomal stability.

AAK1, sequence (Q2M2I8 whole entry): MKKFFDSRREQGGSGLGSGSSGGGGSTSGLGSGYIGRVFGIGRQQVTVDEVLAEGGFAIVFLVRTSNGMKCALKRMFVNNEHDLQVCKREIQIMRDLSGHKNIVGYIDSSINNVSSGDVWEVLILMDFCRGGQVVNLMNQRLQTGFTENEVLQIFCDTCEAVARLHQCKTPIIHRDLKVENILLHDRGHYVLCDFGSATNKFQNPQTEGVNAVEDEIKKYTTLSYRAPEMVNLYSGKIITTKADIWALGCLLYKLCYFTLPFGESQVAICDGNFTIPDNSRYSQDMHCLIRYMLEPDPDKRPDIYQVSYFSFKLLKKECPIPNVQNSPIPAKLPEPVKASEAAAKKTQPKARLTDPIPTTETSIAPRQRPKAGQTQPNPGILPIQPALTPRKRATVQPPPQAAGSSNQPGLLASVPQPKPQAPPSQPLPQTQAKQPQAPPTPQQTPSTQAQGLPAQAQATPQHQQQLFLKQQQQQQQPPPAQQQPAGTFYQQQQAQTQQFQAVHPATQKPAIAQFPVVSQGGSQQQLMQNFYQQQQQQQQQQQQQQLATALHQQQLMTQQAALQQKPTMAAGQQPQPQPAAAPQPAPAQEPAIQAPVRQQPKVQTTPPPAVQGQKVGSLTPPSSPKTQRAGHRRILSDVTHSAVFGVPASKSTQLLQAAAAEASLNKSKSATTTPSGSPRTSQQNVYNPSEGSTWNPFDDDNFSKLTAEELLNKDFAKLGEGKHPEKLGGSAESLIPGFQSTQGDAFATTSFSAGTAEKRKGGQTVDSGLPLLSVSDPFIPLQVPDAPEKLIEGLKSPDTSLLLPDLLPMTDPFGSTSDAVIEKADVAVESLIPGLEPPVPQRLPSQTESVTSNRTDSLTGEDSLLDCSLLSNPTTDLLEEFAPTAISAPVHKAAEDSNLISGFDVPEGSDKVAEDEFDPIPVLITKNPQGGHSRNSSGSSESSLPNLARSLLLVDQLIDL

Compound: CN(c1ccc2ncc(-c3ccc4cn[nH]c4c3)n2n1)C1CCOCC1 [Compound 19]
- IC50 [1]: 120 nM
- IC50 [2]: 319 nM
- decrease of Bcl2/18S mRNA ratio [3]: 95±2%
- decrease of Mcl1/18S mRNA ratio [3]: 87±8%
- decrease of Bcl2/18S mRNA ratio [4]: 96±2%
- decrease of Mcl1/18S mRNA ratio [4]: 90±9%
- decrease of Bcl2/18S mRNA ratio [5]: 96±2%
- decrease of Mcl1/18S mRNA ratio [5]: 95±3%
- number of colonies [6]: 49+28
- number of colonies [7]: 34+12
- suppression of CCL3 mRNA [8]: more than 2 fold
- suppression of CXCL1 mRNA [8]: more than 2 fold
- suppression of CXCL2 mRNA [8]: more than 2 fold
- suppression of IL-1β mRNA [8]: 5.9 fold
- suppression of IL-6 mRNA [8]: 6.8 fold
- suppression of TNF-α mRNA [8]: 1.6 fold
- suppression of iNOS mRNA [8]: 8 fold
- N/C HuR ratio [9]: 1.9
- duration of reversal of allodynia after acute administration [10]: at least 60 minutes
- half-life [11]: 8.6 min
